# Assay results reported in patent US10053428B2, “5-aminotetrahydroquinoline-2-carboxylic acids and their use” (BAYER PHARMA AKTIENGESELLSCHAFT, priority 2012, dated 2018).
# What was measured:
# [1] = tested on: recombinant guanylate cyclase reporter cell line; test: sGC-activating activity in the CHO reporter cell in vitro; format: cell-based; conditions: read-out: MEC (minimum effective concentration)
# Protocol: B-2. Action at a Recombinant Guanylate Cyclase Reporter Cell Line
# The cellular action of the compounds according to the invention is determined at a recombinant guanylate cyclase reporter cell line, as described in F. Wunder et al., Anal. Biochem. 32, 104-112 (2005).
# [2] = biological target: T1, haem-free recombinant soluble guanylate cyclase (sGC) (Rattus norvegicus, UniProt P20595); test: Stimulation of recombinant soluble guanylate cyclase (sGC) in vitro, haem-free enzyme; format: biochemical
# T1 construct: made in house; host or cells: Sf9 insect cells (baculovirus)
# T1 sequence (P20595 1-619): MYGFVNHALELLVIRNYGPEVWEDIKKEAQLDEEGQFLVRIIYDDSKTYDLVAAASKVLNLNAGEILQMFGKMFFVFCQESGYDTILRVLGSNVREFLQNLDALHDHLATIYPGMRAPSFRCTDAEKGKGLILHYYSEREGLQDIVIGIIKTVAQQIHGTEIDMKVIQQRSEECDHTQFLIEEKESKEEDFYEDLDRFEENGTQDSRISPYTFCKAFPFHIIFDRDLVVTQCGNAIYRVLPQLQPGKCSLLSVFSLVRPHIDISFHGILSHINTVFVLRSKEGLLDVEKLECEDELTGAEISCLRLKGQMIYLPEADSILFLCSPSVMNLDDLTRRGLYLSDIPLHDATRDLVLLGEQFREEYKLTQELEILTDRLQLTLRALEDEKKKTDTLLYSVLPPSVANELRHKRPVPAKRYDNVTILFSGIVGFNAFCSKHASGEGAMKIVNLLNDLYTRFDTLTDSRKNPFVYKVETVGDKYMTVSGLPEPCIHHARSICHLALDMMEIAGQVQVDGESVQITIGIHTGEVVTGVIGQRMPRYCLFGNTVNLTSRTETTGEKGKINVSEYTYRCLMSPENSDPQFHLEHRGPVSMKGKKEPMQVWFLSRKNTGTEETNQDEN
# T1 sequence (P19686 1-690 partner): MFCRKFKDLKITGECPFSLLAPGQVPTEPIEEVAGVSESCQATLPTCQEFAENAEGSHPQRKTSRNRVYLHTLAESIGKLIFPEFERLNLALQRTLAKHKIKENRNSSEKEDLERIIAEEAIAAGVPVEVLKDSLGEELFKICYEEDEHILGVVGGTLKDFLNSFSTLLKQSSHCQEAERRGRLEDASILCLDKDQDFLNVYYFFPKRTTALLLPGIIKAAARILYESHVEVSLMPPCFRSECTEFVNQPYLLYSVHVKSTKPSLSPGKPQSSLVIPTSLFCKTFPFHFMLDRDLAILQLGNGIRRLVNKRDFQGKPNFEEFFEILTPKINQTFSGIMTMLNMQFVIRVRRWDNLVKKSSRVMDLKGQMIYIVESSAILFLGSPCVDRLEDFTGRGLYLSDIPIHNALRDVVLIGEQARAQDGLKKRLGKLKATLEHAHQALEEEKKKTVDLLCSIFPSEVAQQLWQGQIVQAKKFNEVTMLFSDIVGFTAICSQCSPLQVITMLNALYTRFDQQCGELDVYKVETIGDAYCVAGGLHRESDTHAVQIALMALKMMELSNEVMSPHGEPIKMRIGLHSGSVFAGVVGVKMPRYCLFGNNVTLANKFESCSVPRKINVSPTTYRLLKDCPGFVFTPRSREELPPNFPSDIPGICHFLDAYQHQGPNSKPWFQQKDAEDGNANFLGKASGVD
# Protocol: (§1) B-1. Stimulation of Recombinant Soluble Guanylate Cyclase (sGC) In Vitro
# (§2) Investigations on the stimulation of recombinant soluble guanylate cyclase (sGC) by the compounds according to the invention with and without sodium nitroprusside, and with and without the haem-dependent sGC inhibitor 1H-1,2,4-oxadiazolo[4,3a]quinoxalin-1-one (ODQ), are carried out by the method described in detail in the following reference: M. Hoenicka, E. M. Becker, H. Apeler, T. Sirichoke, H. Schroeder, R. Gerzer and J.-P. Stasch, “Purified soluble guanylyl cyclase expressed in a baculovirus/Sf9 system: Stimulation by YC-1, nitric oxide, and carbon oxide”, J. Mol. Med 77 (1999), 14-23. The haem-free guanylate cyclase is obtained by adding Tween 20 to the sample buffer (0.5% in the final concentration).
# The activation of sGC by a test substance is reported as x-fold stimulation of the basal activity. The result for Example 2 is shown in Table 1A, that for Example 23 in Table 1B and that for Example 39 in Table 1C: […]
# [3] = biological target: T2, haem-containing recombinant soluble guanylate cyclase (sGC) (Rattus norvegicus, UniProt P20595); test: Stimulation of recombinant soluble guanylate cyclase (sGC) in vitro, haem-containing enzyme; format: biochemical
# T2 construct: made in house; host or cells: Sf9 insect cells (baculovirus)
# T2 sequence (P20595 1-619): T1 sequence (P20595 1-619)
# T2 sequence (P19686 1-690 partner): T1 sequence (P19686 1-690 partner)
# Protocol: as §1, §2
# The activation of sGC by a test substance is reported as x-fold stimulation of the basal activity. The result for Example 2 is shown in Table 1A, that for Example 23 in Table 1B and that for Example 39 in Table 1C:
# [DEA/NO=2-(N,N-diethylamino)diazenolate 2-oxide; ODQ=1H-1,2,4-oxadiazolo-[4,3a]quinoxalin-1-one].
smiles,measurement,setting,value
"O=C(O)c1ccc(CCN(CCc2ccccc2OCc2ccc(-c3ccc(C(F)(F)F)cc3)cc2Cl)C2CCCc3nc(C(=O)O)ccc32)cc1 (single isomer, unassigned; enantiomer 2) [Example 23, 5-{[2-(4-Carboxyphenyl)ethyl][2-(2-{[3-chloro-4′-(trifluoromethyl)biphenyl-4-yl]methoxy}-phenyl)ethyl]amino}-5,6,7,8-tetrahydroquinoline-2-carboxylic acid (Enantiomer 2)]",minimal effective concentration,[1],0.0007 µM
same,"Stimulation (x-fold), haem-free sGC, basal",[2]; test compound 0.01 μM,52.5 ± 3.8 x-fold
same,"Stimulation (x-fold), haem-free sGC, basal",[2]; test compound 0.1 μM,184.3 ± 15.4 x-fold
same,"Stimulation (x-fold), haem-free sGC, basal",[2]; test compound 1.0 μM,284.7 ± 18.8 x-fold
same,"Stimulation (x-fold), haem-free sGC, basal",[2]; test compound 10 μM,310.4 ± 22.6 x-fold
same,"Stimulation (x-fold), haem-free sGC, basal",[2]; test compound 100 μM,342.0 ± 27.6 x-fold
same,Effect of combination with the NO donor DEA/NO on sGC stimulation,[3]; combination with DEA/NO,no synergistic effect
same,"Stimulation (x-fold), haem-containing sGC, basal",[3]; test compound 0.01 μM,8.3 ± 1.1 x-fold
same,"Stimulation (x-fold), haem-containing sGC, +0.1 μM DEA/NO",[3]; test compound 0.01 μM,24.5 ± 4.4 x-fold
same,"Stimulation (x-fold), haem-containing sGC, +10 μM ODQ",[3]; test compound 0.01 μM,16.9 ± 3.3 x-fold
same,"Stimulation (x-fold), haem-containing sGC, basal",[3]; test compound 0.1 μM,54.2 ± 11.9 x-fold
same,"Stimulation (x-fold), haem-containing sGC, +0.1 μM DEA/NO",[3]; test compound 0.1 μM,77.1 ± 9.2 x-fold
same,"Stimulation (x-fold), haem-containing sGC, +10 μM ODQ",[3]; test compound 0.1 μM,105.4 ± 18.0 x-fold
same,"Stimulation (x-fold), haem-containing sGC, basal",[3]; test compound 1.0 μM,108.7 ± 16.3 x-fold
same,"Stimulation (x-fold), haem-containing sGC, +0.1 μM DEA/NO",[3]; test compound 1.0 μM,155.2 ± 20.7 x-fold
same,"Stimulation (x-fold), haem-containing sGC, +10 μM ODQ",[3]; test compound 1.0 μM,216.1 ± 28.9 x-fold
same,"Stimulation (x-fold), haem-containing sGC, basal",[3]; test compound 10 μM,135.7 ± 20.0 x-fold
same,"Stimulation (x-fold), haem-containing sGC, +0.1 μM DEA/NO",[3]; test compound 10 μM,180.4 ± 22.9 x-fold
same,"Stimulation (x-fold), haem-containing sGC, +10 μM ODQ",[3]; test compound 10 μM,227.0 ± 31.7 x-fold
same,"Stimulation (x-fold), haem-containing sGC, basal",[3]; test compound 100 μM,180.5 ± 21.2 x-fold
same,"Stimulation (x-fold), haem-containing sGC, +0.1 μM DEA/NO",[3]; test compound 100 μM,241.0 ± 34.4 x-fold
same,"Stimulation (x-fold), haem-containing sGC, +10 μM ODQ",[3]; test compound 100 μM,261.7 ± 32.1 x-fold
"CC(C)(C)c1ccc(COc2ccccc2CCN(CCc2ccc(C(=O)O)cc2)C2CCCc3nc(C(=O)O)ccc32)cc1 (racemic) [Example 12, rac-5-{(2-{2-[(4-tert-Butylbenzyl)oxy]phenyl}ethyl)[2-(4-carboxyphenyl)ethyl]amino}-5,6,7,8-tetrahydroquinoline-2-carboxylic acid]",minimal effective concentration,[1],0.0003 µM
"O=C(O)c1ccc(CCN(CCc2ccccc2OCc2ccc(-c3nc4cc(Cl)ccc4o3)cc2)C2CCCc3nc(C(=O)O)ccc32)cc1 (single isomer, unassigned; enantiomer 2) [Example 20, 5-{[2-(4-Carboxyphenyl)ethyl][2-(2-{[4-(5-chloro-1,3-benzoxazol-2-yl)benzyl]oxy}phenyl)ethyl]-amino}-5,6,7,8-tetrahydroquinoline-2-carboxylic acid (Enantiomer 2)]",minimal effective concentration,[1],0.003 µM
"O=C(O)c1ccc(CCN(CCc2ccccc2OCc2ccc(-c3nc4cc(C(F)(F)F)ccc4o3)cc2)C2CCCc3nc(C(=O)O)ccc32)cc1 (single isomer, unassigned) [Example 24]",minimal effective concentration,[1],0.001 µM
"Cc1ccc2oc(-c3ccc(COc4ccccc4CCN(CCc4ccc(C(=O)O)cc4)C4CCCc5nc(C(=O)O)ccc54)cc3)nc2c1 (single isomer, unassigned) [Example 22]",minimal effective concentration,[1],0.001 µM
"O=C(O)CCCCN(CCc1cc(F)ccc1OCc1ccc(-c2nc3cc(Cl)ccc3o2)cc1)C1CCCc2nc(C(=O)O)ccc21 (single isomer, unassigned) [Example 37]",minimal effective concentration,[1],0.001 µM
O=C(O)CCCCN(CCc1ccccc1OCc1ccc([C@H]2CC[C@H](C(F)(F)F)CC2)cc1)C1CCCc2nc(C(=O)O)ccc21 (some centres unmarked) [Example 11],minimal effective concentration,[1],0.0003 µM
"O=C(O)c1ccc(CCN(CCc2ccccc2OCc2ccc(-c3nc4ccccc4o3)cc2)C2CCCc3nc(C(=O)O)ccc32)cc1 (single isomer, unassigned) [Example 26]",minimal effective concentration,[1],0.001 µM
"O=C(O)CCCCN(CCc1ccccc1OCc1ccc(-c2nc3cc(Cl)ccc3o2)cc1)C1CCCc2nc(C(=O)O)ccc21 (single isomer, unassigned) [Example 32]",minimal effective concentration,[1],0.0003 µM
"O=C(O)CCCCN(CCc1ccccc1OCc1ccc(-c2nc3cc(C(F)(F)F)ccc3o2)cc1)C1CCCc2nc(C(=O)O)ccc21 (single isomer, unassigned) [Example 25]",minimal effective concentration,[1],0.0003 µM
"O=C(O)c1ccc(CCN(CCc2cc(F)ccc2OCc2ccc(-c3ccc(C(F)(F)F)cc3)cc2Cl)C2CCCc3nc(C(=O)O)ccc32)cc1 (single isomer, unassigned) [Example 33]",minimal effective concentration,[1],0.01 µM
"O=C(O)CCCCN(CCc1ccccc1OCc1ccc(-c2ccc(C(F)(F)F)cc2)cc1)C1CCCc2nc(C(=O)O)ccc21 (single isomer, unassigned) [Example 17]",minimal effective concentration,[1],1 µM
"O=C(O)c1ccc(CCN(CCc2ccccc2OCc2ccc(-c3nc4cc(Cl)ccc4o3)cc2)C2CCCc3nc(C(=O)O)ccc32)cc1 (single isomer, unassigned; enantiomer 1) [Example 19, 5-{[2-(4-Carboxyphenyl)ethyl][2-(2-{[4-(5-chloro-1,3-benzoxazol-2-yl)benzyl]oxy}phenyl)ethyl]-amino}-5,6,7,8-tetrahydroquinoline-2-carboxylic acid (Enantiomer 1)]",minimal effective concentration,[1],0.03 µM
"O=C(O)c1ccc(CCN(CCc2cc(F)ccc2OCc2ccc(-c3nc4cc(Cl)ccc4o3)cc2)C2CCCc3nc(C(=O)O)ccc32)cc1 (single isomer, unassigned) [Example 35]",minimal effective concentration,[1],0.003 µM
